The subject of the test is mice, ADJ-PC-20 plasma cell tumor sc, T/C %. Briefly: NCI In Vivo Anticancer Drug Screen. Data for tumor model ADJ-PC-20 Plasma Cell (subcutaneous) in unknown mice. The following applies: endpoint: mean tumor weight, higher = larger tumour. As to the method: The antitumor activity of compounds was measured in mice bearing transplantable tumors. Survival or tumor size were measured and the results are expressed as the measurement made in the treated group (T) divided by the measurement made in the vehicle treated control group (C). The tumor model used in this assay is ADJ-PC-20 Plasma Cell (subcutaneous) in unknown mice

The mark [1] stands for this setting: dose: 6.3 mg/kg/injection, schedule: Q01DX010 (ip), vehicle: water.
Where [2] appears, read: dose: 12.5 mg/kg/injection, schedule: Q01DX010 (ip), vehicle: water.
The mark [3] stands for this setting: dose: 25.0 mg/kg/injection, schedule: Q01DX010 (ip), vehicle: carboxymethylcellulose (CMC).
Setting [4] is: dose: 50.0 mg/kg/injection, schedule: Q01DX010 (ip), vehicle: carboxymethylcellulose (CMC).
Where [5] appears, read: dose: 25.0 mg/kg/injection, schedule: Q01DX010 (ip), vehicle: water.
[6] abbreviates: dose: 12.5 mg/kg/injection, schedule: Q01DX010 (ip), vehicle: carboxymethylcellulose (CMC).
Where [7] appears, read: dose: 0.63 mg/kg/injection, schedule: Q01DX010 (ip), vehicle: saline.
[8] abbreviates: dose: 1.25 mg/kg/injection, schedule: Q01DX010 (ip), vehicle: saline.
[9] abbreviates: dose: 250.0 mg/kg/injection, schedule: Q01DX010 (ip), vehicle: saline.

SMILES strings stand for the structures. Where “and” joins values, the source holds several entries; their conditions need not be identical. Equal entries are not always repeated. Results filed as inconclusive are left out.

With `O=C(Nc1ccc(C2=NCCN2)cc1)c1ccc(C(=O)Nc2ccc(C3=NCCN3)cc2)c(Cl)c1`, the T/C (dose: 1.62 mg/kg/injection, schedule: Q01DX010 (ip), vehicle: water) is 108 % of control; the T/C (dose: 3.12 mg/kg/injection, schedule: Q01DX010 (ip), vehicle: water) is 152 % of control; the T/C (dose: 6.25 mg/kg/injection, schedule: Q01DX010 (ip), vehicle: water) was 94 % of control; the T/C under setting [1] is 64 % of control; the T/C (dose: 7.5 mg/kg/injection, schedule: Q01DX010 (ip), vehicle: water) was 81 % of control and 83 % of control; the T/C under setting [2] is 121 % of control. Further, under “dose: 30.0 mg/kg/injection, schedule: Q01DX010 (ip), vehicle: water”, the T/C is 55 % of control and 66 % of control.

Regarding `O=c1[nH]c(=O)n(C2CC(O)C(CO)O2)cc1F` (configuration not stated), the T/C under setting [3] was 67 % of control; the T/C under setting [4] is 21 % of control; the T/C (dose: 100.0 mg/kg/injection, schedule: Q01DX010 (ip), vehicle: carboxymethylcellulose (CMC)) was 36 % of control.

Regarding `CC(=O)OCC1OC(n2ncc(=O)[nH]c2=O)C(OC(C)=O)C1OC(C)=O` (configuration not stated), the T/C is 55 % of control (dose: 125.0 mg/kg/injection, schedule: Q01DX010 (ip), vehicle: other); 58 % of control (dose: 250.0 mg/kg/injection, schedule: Q01DX010 (ip), vehicle: other); 48 % of control (dose: 500.0 mg/kg/injection, schedule: Q01DX010 (ip), vehicle: other).

Take `N=C(N)c1ccc(Nc2ccc(C(=N)N)cc2)cc1`: the T/C reads like this: (dose: 6.25 mg/kg/injection, schedule: Q01DX010 (ip), vehicle: methylcellulose (MC)) 116 % of control; (dose: 12.5 mg/kg/injection, schedule: Q01DX010 (ip), vehicle: methylcellulose (MC)) 105 % of control.

Take `CN(C)c1ccc(/C=C\c2ccnc3ccccc23)cc1`: the T/C by setting is: under setting [1], 70 % of control; under setting [2], 52 % of control; under setting [5], 48 % of control; (dose: 25.0 mg/kg/injection, schedule: Q01DX011 (ip), vehicle: water) 92 % of control.

As for `COS(C)(=O)=O`, the T/C under setting [5] is 110 % of control; the T/C (dose: 50.0 mg/kg/injection, schedule: Q01DX010 (ip), vehicle: water) was 82 % of control; the T/C (dose: 100.0 mg/kg/injection, schedule: Q01DX010 (ip), vehicle: water) was 42 % of control.

In the case of `CCCCNc1ncnc2c1cnn2C`, the T/C was 94 % of control (dose: 3.1 mg/kg/injection, schedule: Q01DX010 (ip), vehicle: carboxymethylcellulose (CMC)); 122 % of control under setting [6]; 96 % of control under setting [3]; 109 % of control under setting [4].

On to `CN(N=O)C(=O)NC(C=O)C(O)C(O)C(O)CO` (configuration not stated), for which the T/C (dose: 50.0 mg/kg/injection, schedule: Q01DX010 (ip), vehicle: saline) is 68 % of control.

As to `O[C@H](CN1CC1)[C@@H](O)CN1CC1`, the T/C is, setting by setting: (dose: 0.25 mg/kg/injection, schedule: Q01DX010 (ip), vehicle: carboxymethylcellulose (CMC)) 25 % of control; (dose: 16.0 micrograms/kg/injection, schedule: Q01DX010 (ip), vehicle: carboxymethylcellulose (CMC)) 103 % of control; (dose: 31.0 micrograms/kg/injection, schedule: Q01DX010 (ip), vehicle: carboxymethylcellulose (CMC)) 151 % of control; (dose: 63.0 micrograms/kg/injection, schedule: Q01DX010 (ip), vehicle: carboxymethylcellulose (CMC)) 55 % of control; (dose: 125.0 micrograms/kg/injection, schedule: Q01DX010 (ip), vehicle: carboxymethylcellulose (CMC)) 66 % of control.

With `CC[C@]1(O)C[C@H]2CN(CCc3c([nH]c4ccccc34)[C@@](C(=O)OC)(c3cc4c(cc3OC)N(C=O)[C@H]3[C@@](O)(C(=O)OC)[C@H](OC(C)=O)[C@]5(CC)C=CCN6CC[C@]43[C@@H]65)C2)C1`, the T/C is 109 % of control (dose: 0.12 mg/kg/injection, schedule: Q01DX010 (ip), vehicle: water); 105 % of control (dose: 0.5 mg/kg/injection, schedule: Q01DX010 (ip), vehicle: water); 97 % of control (dose: 31.0 micrograms/kg/injection, schedule: Q01DX010 (ip), vehicle: water); 95 % of control (dose: 62.0 micrograms/kg/injection, schedule: Q01DX010 (ip), vehicle: water); 90 % of control (dose: 125.0 micrograms/kg/injection, schedule: Q01DX010 (ip), vehicle: water); 63 % of control (dose: 250.0 micrograms/kg/injection, schedule: Q01DX010 (ip), vehicle: water).

In the case of `N[C@@H](Cc1ccc(N(CCCl)CCCl)cc1)C(=O)O`, the T/C was 48 % of control (dose: 0.3 mg/kg/injection, schedule: Q01DX010 (ip), vehicle: saline); 75 % of control under setting [7]; 52 % of control under setting [8].

For the molecule `CC[C@H](c1ccc(O)cc1)[C@@H](CC)c1ccc(O)cc1`, the T/C is 185 % of control (dose: 31.25 mg/kg/injection, schedule: Q01DX010 (sc), vehicle: steriod suspending solution) and 180 % of control (dose: 62.5 mg/kg/injection, schedule: Q01DX010 (sc), vehicle: steriod suspending solution).

Consider `N#[N+]c1cnc([O-])[nH]c1=O`, for which the T/C runs as follows: (dose: 5.0 mg/kg/injection, schedule: Q01DX010 (ip), vehicle: carboxymethylcellulose (CMC)) 99 % of control; (dose: 10.0 mg/kg/injection, schedule: Q01DX010 (ip), vehicle: carboxymethylcellulose (CMC)) 90 % of control.

Take `CCCCCCCCCCCCNCCCCCCCCCCCC`: the T/C (dose: 0.9 mg/kg/injection, schedule: Q01DX010 (ip), vehicle: carboxymethylcellulose (CMC)) was 109 % of control; the T/C (dose: 1.8 mg/kg/injection, schedule: Q01DX010 (ip), vehicle: carboxymethylcellulose (CMC)) was 109 % of control; the T/C (dose: 3.7 mg/kg/injection, schedule: Q01DX010 (ip), vehicle: carboxymethylcellulose (CMC)) is 98 % of control; the T/C (dose: 7.5 mg/kg/injection, schedule: Q01DX010 (ip), vehicle: carboxymethylcellulose (CMC)) is 88 % of control and 110 % of control.

As to `Nc1ncnc2[nH]ncc12`, the T/C by setting is: (dose: 6.25 mg/kg/injection, schedule: Q01DX010 (ip), vehicle: carboxymethylcellulose (CMC)) 108 % of control; under setting [6], 87 % of control; under setting [3], 22 % of control.

In the case of `Nc1nc2n[nH]nc2c(=O)[nH]1`, the T/C reads like this: (dose: 12.5 mg/kg/injection, schedule: Q01DX010 (ip), vehicle: other) 113 % of control; (dose: 75.0 mg/kg/injection, schedule: Q01DX010 (ip), vehicle: other) 58 % of control; (dose: 100.0 mg/kg/injection, schedule: Q01DX010 (ip), vehicle: other) 83 % of control.

For the molecule `O=NN(CCCl)C(=O)NCCCl`, the T/C is 102 % of control (dose: 0.8 mg/kg/injection, schedule: Q01DX010 (ip), vehicle: saline); 87 % of control (dose: 1.6 mg/kg/injection, schedule: Q01DX010 (ip), vehicle: saline); 48 % of control (dose: 6.2 mg/kg/injection, schedule: Q01DX010 (ip), vehicle: saline).

`CC(=O)N(C)C`: the T/C under setting [9] is 60 % of control; the T/C (dose: 500.0 mg/kg/injection, schedule: Q01DX010 (ip), vehicle: saline) was 75 % of control; the T/C (dose: 1000.0 mg/kg/injection, schedule: Q01DX010 (ip), vehicle: saline) was 51 % of control.

In the case of `Cn1cnc([N+](=O)[O-])c1Sc1nc(N)nc2nc[nH]c12`, the T/C reads like this: (dose: 0.5 mg/kg/injection, schedule: Q01DX010 (ip), vehicle: carboxymethylcellulose (CMC)) 71 % of control; (dose: 1.0 mg/kg/injection, schedule: Q01DX010 (ip), vehicle: carboxymethylcellulose (CMC)) 33 % of control; (dose: 2.0 mg/kg/injection, schedule: Q01DX010 (ip), vehicle: carboxymethylcellulose (CMC)) 30 % of control and 31 % of control; (dose: 4.0 mg/kg/injection, schedule: Q01DX010 (ip), vehicle: carboxymethylcellulose (CMC)) 2 % of control.

In the case of `NC(=O)c1ccc(N)nc1`, the T/C was 69 % of control under setting [7]; 52 % of control under setting [8]; 35 % of control (dose: 1.25 mg/kg/injection, schedule: Q01DX010 (ip), vehicle: water); 18 % of control (dose: 2.5 mg/kg/injection, schedule: Q01DX010 (ip), vehicle: water).

For the molecule `CSCS(=O)C[C@H](CO)NC(=O)/C=C/c1c(C)[nH]c(=O)[nH]c1=O` (some centres not stated), the T/C by setting is: (dose: 0.25 mg/kg/injection, schedule: Q01DX010 (ip), vehicle: saline) 71 % of control; (dose: 0.5 mg/kg/injection, schedule: Q01DX010 (ip), vehicle: saline) 82 % of control.

With `CCOC(N)=O`, under setting [9], the T/C was 80 % of control and 95 % of control.

For the origin of these results see PubChem BioAssay AID332 (DTP/NCI, 2004).
